From ChEMBL document CHEMBL1255340, “In vitro activities of the Rx-01 oxazolidinones against hospital and community pathogens” (2008)
≈ marks a conversion by molar mass, not a printed value. Where “and” joins values, the source holds several entries; their conditions need not be identical. Equal entries are not always repeated.

Key:
Assay type in all cases: functional
[1] = tested on: Enterococcus faecium; test: Antimicrobial activity against Enterococcus faecium A9650
[2] = tested on: Enterococcus faecium; test: Antimicrobial activity against Enterococcus faecium A8948
[3] = tested on: Enterococcus faecium; test: Antimicrobial activity against Enterococcus faecium A9621 by broth microdilution method
[4] = tested on: Enterococcus faecium; test: Antimicrobial activity against Enterococcus faecium A8767
[5] = tested on: Streptococcus pneumoniae; test: Antimicrobial activity against Streptococcus pneumoniae PU1071099 harboring 65WR66 deletion in ribosomal protein L4 by broth microdilution method
[6] = tested on: Staphylococcus aureus; test: Antimicrobial activity against methicillin resistant Staphylococcus aureus 67-0
[7] = tested on: Staphylococcus aureus; test: Antimicrobial activity against methicillin-resistant Staphylococcus aureus BK 11118
[8] = tested on: Staphylococcus aureus; test: Antimicrobial activity against methicillin-resistant Staphylococcus aureus BK 11512
[9] = tested on: Enterococcus faecalis; test: Antimicrobial activity against vancomycin-resistant Enterococcus faecalis 03B1069
[10] = tested on: Streptococcus pneumoniae; test: Antimicrobial activity against Streptococcus pneumoniae 02J1258
[11] = tested on: Streptococcus pneumoniae; test: Antimicrobial activity against Streptococcus pneumoniae 02J1175
[12] = tested on: Haemophilus influenzae; test: Antimicrobial activity against Haemophilus influenzae 54A1100
[13] = tested on: Haemophilus influenzae; test: Antimicrobial activity against Haemophilus influenzae A1950
[14] = tested on: Staphylococcus aureus; test: Antimicrobial activity against Staphylococcus aureus A7820
[15] = tested on: Enterococcus faecium; test: Antimicrobial activity against Enterococcus faecium A6349
[16] = tested on: Streptococcus pneumoniae; test: Antimicrobial activity against Streptococcus pneumoniae harboring erm(B) gene by broth microdilution method
[17] = tested on: Streptococcus pyogenes; test: Antimicrobial activity against Streptococcus pyogenes
[18] = tested on: Staphylococcus aureus; test: Antimicrobial activity against Staphylococcus aureus ATCC 29213
[19] = tested on: Staphylococcus aureus; test: Antimicrobial activity against Staphylococcus aureus A7819 harboring G2576U mutation in 23S rRNA
[20] = tested on: Staphylococcus aureus; test: Antimicrobial activity against Staphylococcus aureus A8833 harboring U2500A mutation in 23S rRNA
[21] = tested on: Staphylococcus aureus; test: Antimicrobial activity against Staphylococcus aureus A8831 harboring U2500A mutation in 23S rRNA
[22] = tested on: Staphylococcus aureus; test: Antimicrobial activity against Staphylococcus aureus A7817
[23] = tested on: Staphylococcus aureus; test: Antimicrobial activity against Staphylococcus aureus A8761
[24] = tested on: Staphylococcus aureus; test: Antimicrobial activity against Staphylococcus aureus A8727
[25] = tested on: Staphylococcus hominis; test: Antimicrobial activity against Staphylococcus hominis A7828
[26] = tested on: Staphylococcus epidermidis; test: Antimicrobial activity against Staphylococcus epidermidis A8934
[27] = tested on: Staphylococcus capitis; test: Antimicrobial activity against Staphylococcus capitis A8935
[28] = tested on: Staphylococcus aureus; test: Antimicrobial activity against Staphylococcus aureus pL150
[29] = tested on: Staphylococcus aureus; test: Antimicrobial activity against Staphylococcus aureus pLXM1 harboring cfr gene
[30] = tested on: Enterococcus faecalis; test: Antimicrobial activity against Enterococcus faecalis ATCC 29212
[31] = tested on: Enterococcus faecalis; test: Antimicrobial activity against Enterococcus faecalis ATCC 29212-P5 harboring G2576U mutation in 23S rRNA
[32] = tested on: Enterococcus faecalis; test: Antimicrobial activity against Enterococcus faecalis A6350
[33] = tested on: Enterococcus faecalis; test: Antimicrobial activity against Enterococcus faecalis A6343
[34] = tested on: Enterococcus faecalis; test: Antimicrobial activity against Enterococcus faecalis A5962
[35] = tested on: Enterococcus faecalis; test: Antimicrobial activity against Enterococcus faecalis A7789
[36] = tested on: Enterococcus faecium; test: Antimicrobial activity against Enterococcus faecium A5959
[37] = tested on: Enterococcus faecium; test: Antimicrobial activity against Enterococcus faecium A5960
[38] = tested on: Enterococcus faecium; test: Antimicrobial activity against Enterococcus faecium A6345
[39] = tested on: Enterococcus faecium; test: Antimicrobial activity against Enterococcus faecium A6348 harboring G2576U mutation in 23S rRNA
[40] = tested on: Enterococcus faecium; test: Antimicrobial activity against Enterococcus faecium A8130
[41] = tested on: Streptococcus pneumoniae; test: Antimicrobial activity against Streptococcus pneumoniae nosocomial isolate
[42] = tested on: Enterococcus faecium; test: Antimicrobial activity against vancomycin-susceptible Enterococcus faecium nosocomial isolate by broth microdilution method
[43] = tested on: Streptococcus pneumoniae; test: Antimicrobial activity against Streptococcus pneumoniae harboring erm(B) and mef(A) gene
[44] = tested on: Streptococcus pneumoniae; test: Antimicrobial activity against Streptococcus pneumoniae harboring mef(A) gene
[45] = tested on: Streptococcus pneumoniae; test: Antimicrobial activity against Streptococcus pneumoniae ribosomal mutant
[46] = tested on: Moraxella catarrhalis; test: Antimicrobial activity against Moraxella catarrhalis
[47] = tested on: Legionella pneumophila; test: Antimicrobial activity against Legionella pneumophila isolated from human respiratory tract by broth microdilution method
[48] = tested on: Chlamydia trachomatis; test: Antimicrobial activity against Chlamydia trachomatis isolated from human respiratory tract by broth microdilution method
[49] = tested on: Chlamydia pneumoniae; test: Antimicrobial activity against Chlamydophila pneumoniae isolated from human respiratory tract by broth microdilution method
[50] = tested on: Enterococcus faecium; test: Antimicrobial activity against Enterococcus faecium A6349 harboring G2576U mutation in 23S rRNA
[51] = tested on: Staphylococcus aureus; test: Antimicrobial activity against methicillin-susceptible Staphylococcus aureus nosocomial isolate
[52] = tested on: Enterococcus faecalis; test: Antimicrobial activity against vancomycin-resistant Enterococcus faecalis nosocomial isolate
[53] = tested on: Enterococcus faecium; test: Antimicrobial activity against vancomycin-resistant Enterococcus faecium nosocomial isolate
[54] = Streptococcus pneumoniae, read-out: MIC
[55] = Enterococcus faecium, read-out: MIC

## CC[C@H]1OC(=O)[C@H](C)[C@@H](O[C@H]2C[C@@](C)(OC)[C@@H](O)[C@H](C)O2)[C@H](C)[C@@H](O[C@@H]2O[C@H](C)C[C@H](N(C)C)[C@H]2O)[C@](C)(O)C[C@@H](C)CN(C)[C@H](C)[C@@H](O)[C@]1(C)O [AZITHROMYCIN]
[1]
  MIC: > 128 µg/mL
[2]
  MIC: > 128 µg/mL
[3]
  MIC: 16 µg/mL (≈ 21.4 µM)
[4]
  MIC: > 128 µg/mL
[5]
  MIC: 4 µg/mL (≈ 5.34 µM)
[6]
  MIC: > 128 µg/mL
[7]
  MIC: > 128 µg/mL
[8]
  MIC: > 128 µg/mL
[9]
  MIC: > 128 µg/mL
[10]
  MIC: > 128 µg/mL
[11]
  MIC: 32 µg/mL (≈ 42.7 µM)
[12]
  MIC: 1 µg/mL (≈ 1.34 µM)
[13]
  MIC: 4 µg/mL (≈ 5.34 µM)
[14]
  MIC: > 128 µg/mL
[15]
  MIC: > 128 µg/mL
[16]; [54]
  MIC: > 128 µg/mL
[17]
  MIC: 0.03 µg/mL and 0.06 µg/mL
[18]
  MIC: 1 µg/mL (≈ 1.34 µM)
[19]
  MIC: 2 µg/mL (≈ 2.67 µM)
[20]
  MIC: > 128 µg/mL
[21]
  MIC: > 128 µg/mL
[22]
  MIC: 1 µg/mL (≈ 1.34 µM)
[23]
  MIC: > 128 µg/mL
[24]
  MIC: 16 µg/mL (≈ 21.4 µM)
[25]
  MIC: > 128 µg/mL
[26]
  MIC: > 128 µg/mL
[27]
  MIC: 64 µg/mL (≈ 85.4 µM)
[28]
  MIC: 0.25 µg/mL (≈ 0.334 µM)
[29]
  MIC: 0.5 µg/mL (≈ 0.668 µM)
[30]
  MIC: 8 µg/mL (≈ 10.7 µM)
[31]
  MIC: 8 µg/mL (≈ 10.7 µM)
[32]
  MIC: 4 µg/mL (≈ 5.34 µM)
[33]
  MIC: > 128 µg/mL
[34]
  MIC: > 128 µg/mL
[35]
  MIC: > 128 µg/mL
[36]
  MIC: 8 µg/mL (≈ 10.7 µM)
[37]
  MIC: > 128 µg/mL
[38]
  MIC: 2 µg/mL (≈ 2.67 µM)
[39]
  MIC: > 128 µg/mL
[40]
  MIC: 4 µg/mL (≈ 5.34 µM)

## CCC[C@@H]1C[C@@H](C(=O)N[C@@H]([C@H]2O[C@H](SC)[C@H](O)[C@@H](O)[C@H]2O)[C@H](C)Cl)N(C)C1 [CLINDAMYCIN]
[16]
  MIC: >128 µg/mL
[16]; [54]
  MIC: > 64 µg/mL

## CC(=O)NC[C@H]1CN(c2ccc(-c3ccc(CNCc4cnn[nH]4)cc3)c(F)c2)C(=O)O1 [RADEZOLID]
[1]
  MIC: 0.5 µg/mL (≈ 1.14 µM)
[2]
  MIC: ≤ 0.25 µg/mL
[3]
  MIC: 4 µg/mL (≈ 9.12 µM)
[4]
  MIC: 2 µg/mL (≈ 4.56 µM)
[5]
  MIC: 0.5 µg/mL (≈ 1.14 µM)
[6]
  MIC: 1 µg/mL (≈ 2.28 µM)
[7]
  MIC: 1 µg/mL (≈ 2.28 µM)
[8]
  MIC: 2 µg/mL (≈ 4.56 µM)
[9]
  MIC: 0.5 µg/mL (≈ 1.14 µM)
[10]
  MIC: 0.25 µg/mL (≈ 0.57 µM)
[11]
  MIC: 0.25 µg/mL (≈ 0.57 µM)
[12]
  MIC: 0.5 µg/mL (≈ 1.14 µM)
[13]
  MIC: 1 µg/mL (≈ 2.28 µM)
[14]
  MIC: 16 µg/mL (≈ 36.5 µM)
[15]
  MIC: 0.5 µg/mL (≈ 1.14 µM)
[41]
  MIC: 0.25 µg/mL (≈ 0.57 µM)
[41]; [54]
  MIC: 0.125 µg/mL (≈ 0.285 µM)
[42]
  MIC: 0.5 µg/mL (≈ 1.14 µM)
[42]; [55]
  MIC: ≤ 0.25 µg/mL
[16]; [54]
  MIC: ≤ 0.25 µg/mL
[43]
  MIC: ≤ 0.25 µg/mL
[44]
  MIC: 0.25 µg/mL (≈ 0.57 µM)
[44]; [54]
  MIC: 0.125 µg/mL (≈ 0.285 µM)
[45]
  MIC: ≤ 0.25 µg/mL
[46]
  MIC: 0.5 µg/mL (≈ 1.14 µM)
[46]; Moraxella catarrhalis, read-out: MIC
  MIC: ≤ 0.25 µg/mL
[47]
  MIC: 2 µg/mL (≈ 4.56 µM)
[47]; Legionella pneumophila, read-out: MIC
  MIC: 1 µg/mL (≈ 2.28 µM)
[48]
  MIC: 1 µg/mL (≈ 2.28 µM)
[48]; Chlamydia trachomatis, read-out: MIC
  MIC: 0.5 µg/mL (≈ 1.14 µM)
[49]
  MIC: 1 µg/mL (≈ 2.28 µM)
[18]
  MIC: 1 µg/mL (≈ 2.28 µM)
[19]
  MIC: 16 µg/mL (≈ 36.5 µM)
[20]
  MIC: 32 µg/mL (≈ 73 µM)
[21]
  MIC: 64 µg/mL (≈ 146 µM)
[22]
  MIC: 32 µg/mL (≈ 73 µM)
[23]
  MIC: 16 µg/mL (≈ 36.5 µM)
[24]
  MIC: 4 µg/mL (≈ 9.12 µM)
[25]
  MIC: 8 µg/mL (≈ 18.2 µM)
[26]
  MIC: 2 µg/mL (≈ 4.56 µM)
[27]
  MIC: ≤ 0.25 µg/mL
[28]
  MIC: 1 µg/mL (≈ 2.28 µM)
[29]
  MIC: 2 µg/mL (≈ 4.56 µM)
[30]
  MIC: ≤ 0.25 µg/mL
[31]
  MIC: 1 µg/mL (≈ 2.28 µM)
[32]
  MIC: 2 µg/mL (≈ 4.56 µM)
[33]
  MIC: 4 µg/mL (≈ 9.12 µM)
[34]
  MIC: 1 µg/mL (≈ 2.28 µM)
[35]
  MIC: 4 µg/mL (≈ 9.12 µM)
[36]
  MIC: 4 µg/mL (≈ 9.12 µM)
[37]
  MIC: 4 µg/mL (≈ 9.12 µM)
[38]
  MIC: 4 µg/mL (≈ 9.12 µM)
[39]
  MIC: 4 µg/mL (≈ 9.12 µM)
[50]
  MIC: 0.5 µg/mL (≈ 1.14 µM)
[40]
  MIC: 2 µg/mL (≈ 4.56 µM)

## CC[C@H]1OC(=O)[C@H](C)C(=O)[C@H](C)[C@@H](O[C@@H]2O[C@H](C)C[C@H](N(C)C)[C@H]2O)[C@](C)(OC)C[C@@H](C)C(=O)[C@H](C)[C@H]2N(CCCCn3cnc(-c4cccnc4)c3)C(=O)O[C@]12C [TELITHROMYCIN]
[51]
  MIC: >=0.06 ug ml-1 and 0.125 ug ml-1

## CN[C@H](CC(C)C)C(=O)N[C@H]1C(=O)N[C@@H](CC(N)=O)C(=O)N[C@H]2C(=O)N[C@H]3C(=O)N[C@H](C(=O)N[C@H](C(=O)O)c4cc(O)cc(O)c4-c4cc3ccc4O)[C@H](O)c3ccc(c(Cl)c3)Oc3cc2cc(c3O[C@@H]2O[C@H](CO)[C@@H](O)[C@H](O)[C@H]2O[C@H]2C[C@](C)(N)[C@H](O)[C@H](C)O2)Oc2ccc(cc2Cl)[C@H]1O [VANCOMYCIN]
[5]
  MIC: ≤ 0.25 µg/mL
[9]
  MIC: 32 µg/mL (≈ 22.1 µM)
[10]
  MIC: 0.125 µg/mL (≈ 0.0863 µM)
[11]
  MIC: 0.25 µg/mL (≈ 0.173 µM)
[52]
  MIC: >16 µg/mL
[53]; [55]
  MIC: > 64 µg/mL
[25]
  MIC: 2 µg/mL (≈ 1.38 µM)
[27]
  MIC: 1 µg/mL (≈ 0.69 µM)
[30]
  MIC: 2 µg/mL (≈ 1.38 µM)
[31]
  MIC: 2 µg/mL (≈ 1.38 µM)
[32]
  MIC: 1 µg/mL (≈ 0.69 µM)
[34]
  MIC: 8 µg/mL (≈ 5.52 µM)
[35]
  MIC: 1 µg/mL (≈ 0.69 µM)

## GENTAMICIN
[52]
  MIC: > 128 µg/mL
[42]
  MIC: > 128 µg/mL
[53]
  MIC: > 128 µg/mL
